From patent publication US20100099631A1, “Novel Use” (priority 2006, published 2010)
Read-outs that look alike come from different tables or passages of the source.

What was measured:
[1] = tested on: muscle glucose oxidation; conditions: co-ingestion of caffeine and glucose during exercise; cited from earlier work
[2] = Plasma glucose and insulin concentrations during 4 hr recovery after glycogen-depleting exercise; assay type: in vivo, human (trained cyclists)
Method: (§1) Eight trained cyclists participated in a study which was approved by the Ethics Committee of RMIT University, Melbourne, Australia. Each subject participated in two experimental trials separated by 7 to 10 days. Trials were randomised and double-blind. Approximately 12 to 14 hours before each trial, the subjects reported to the laboratory to undertake 90 minutes of intense cycling (repeated sprints) to deplete muscle glycogen stores. The subjects were then fed a standardised low carbohydrate meal (60% of energy from fat) and had to refrain from solid feeding for the following 12 to 14 hours. During this period water was allowed ad libitum.
(§2) The next morning, subjects reported to the laboratory between 0600 and 0700 hours. After a rest period of 10 minutes, an indwelling canula was inserted into the right forearm and a resting blood sample taken. Local anaesthesia was applied to the subjects skin to enable subcutaneous tissue and fascia of the vastus lateralis of the subjects right leg in preparation for muscle biopsies.
(§3) After biopsy preparation, a bout of exhaustive exercise (submaximal continuous cycling) was undertaken to further deplete muscle glycogen stores. The exhaustive cycling protocol has been previously described by McInerney et al. (McInerney P., Lessard S. J., Burke L. M., Coffey V. G., Lo Giudice S. L., Southgate R. J., Hawley J. A. Failure to repeatedly supercompensate muscle glycogen stores in highly trained men. Med. Sci. Sports Excer. 37:404-411, 2005). During exercise the subjects were allowed to drink water ad libitum and were fan-cooled.
(§4) Laboratory conditions were standardised for the tests with 50% relative humidity and a temperature of 20° C. Immediately on completion of the exercise and while subjects remained seated on the cycle ergometer, a muscle biopsy was taken and frozen within 15 seconds of the last muscle contraction. After the biopsy, subjects dismounted the ergometer and rested in a supine position. During one trial, subjects were fed 1 g/kg body mass (BM) of carbohydrate immediately upon cessation of exercise and thereafter 1 g/kg BM of carbohydrate after 60, 120 and 180 minutes of recovery (a total of 4 g/kg BM carbohydrate). In the second trial, subjects followed the same carbohydrate ingestion regimen but in addition consumed 4 mg/kg BM of caffeine immediately upon cessation of the exercise and then after 120 minutes during recovery. Blood samples were taken at regular intervals throughout the recovery period (0, 30, 60, 90, 120, 180 and 240 minutes). Muscle biopsies were taken immediately after exercise and after 1 and 4 hr of recovery. All muscle samples were stored at −80° C. until analysis.
(§5) Blood samples were analysed for plasma glucose and insulin concentrations at rest, and at regular intervals during recovery. The protocols for blood analysis are routine and have been described previously ((McInerney P., Lessard S. J., Burke L. M., Coffey V. G., Lo Giudice S. L., Southgate R. J., Hawley J. A. Failure to repeatedly supercompensate muscle glycogen stores in highly trained men. Med. Sci. Sports Excer. 37:404-411, 2005). Plasma caffeine levels were analysed by high-performance liquid chromatography. Muscle samples were analysed for glycogen content immediately after exercise and after 1 and 4 hours of recovery.

[3] = tested on: muscle glycogen; assay: Muscle glycogen content and resynthesis rate (vastus lateralis biopsies) after exhaustive exercise; assay type: in vivo, human (trained cyclists); conditions: for Muscle Glycogen Resynthesis Rate: caffeine with carbohydrate
Method: as §1, §2, §3, §4, §5

[4] = Plasma caffeine concentration by HPLC during recovery after exercise; assay type: in vivo, human (trained cyclists); conditions: for concentration at 1 h / concentration at 4 h: 4 mg/kg BM
Method: as §1, §4, §5

[5] = 0 hr, immediately post exercise
[6] = 0.5 hr recovery, caffeine 4 mg/kg BM at 0 and 120 min with carbohydrate 1 g/kg BM hourly
[7] = 1 hr recovery, caffeine 4 mg/kg BM at 0 and 120 min with carbohydrate 1 g/kg BM hourly
[8] = 1.5 hr recovery, caffeine 4 mg/kg BM at 0 and 120 min with carbohydrate 1 g/kg BM hourly
[9] = 2 hr recovery, caffeine 4 mg/kg BM at 0 and 120 min with carbohydrate 1 g/kg BM hourly
[10] = 3 hr recovery, caffeine 4 mg/kg BM at 0 and 120 min with carbohydrate 1 g/kg BM hourly
[11] = 4 hr recovery, caffeine 4 mg/kg BM at 0 and 120 min with carbohydrate 1 g/kg BM hourly
[12] = rest, before exercise and ingestion

Question: Which “increase in muscle glucose oxidation” value [1] does the source give for `Cn1c(=O)c2c(ncn2C)n(C)c1=O` [Caffeine, caffeine] here?
Answer: 26%

Question: What about the “Plasma Glucose” value [2, 5] of the same molecule?
Answer: 3.62 mmol/L

Question: What about the “Plasma Insulin” value [2, 5] of the same molecule?
Answer: 4.17 uU/mL

Question: And the “Plasma Glucose” value [2, 6]?
Answer: 6.06 mmol/L

Question: And the “Plasma Insulin” value [2, 6]?
Answer: 30.17 uU/mL

Question: And the “Plasma Glucose” value [2, 7]?
Answer: 6.29 mmol/L

Question: What about the “Plasma Insulin” value [2, 7] of the same molecule?
Answer: 29.23 uU/mL

Question: And the “Plasma Glucose” value [2, 8]?
Answer: 5.95 mmol/L

Question: And the “Plasma Insulin” value [2, 8]?
Answer: 46.33 uU/mL

Question: And the “Plasma Glucose” value [2, 9]?
Answer: 5.58 mmol/L

Question: And the “Plasma Insulin” value [2, 9]?
Answer: 46.02 uU/mL

Question: What about the “Plasma Glucose” value [2, 10] of the same molecule?
Answer: 5.24 mmol/L

Question: What about the “Plasma Insulin” value [2, 10] of the same molecule?
Answer: 68.53 uU/mL

Question: And the “Plasma Glucose” value [2, 11]?
Answer: 5.23 mmol/L

Question: What about the “Plasma Insulin” value [2, 11] of the same molecule?
Answer: 46.91 uU/mL

Question: And the “area under the insulin versus time curve compared to carbohydrate alone” value ([2]; caffeine with carbohydrate, 4 hr recovery, P<0.05)?
Answer: significantly greater

Question: And the “Plasma Glucose” value [2, 12]?
Answer: 4.04 mmol/L

Question: What about the “Plasma Insulin” value [2, 12] of the same molecule?
Answer: 9.36 uU/mL

Question: And the “Muscle Glycogen Resynthesis Rate” value ([3]; 0-1 hr of recovery)?
Answer: 63.52 mm/Kg · hr · dm

Question: And the “Muscle Glycogen Content” value [3, 5]?
Answer: 76 mmol/Kg · dm

Question: What about the “Muscle Glycogen Content” value [3, 7] of the same molecule?
Answer: 149 mmol/Kg · dm

Question: And the “Muscle Glycogen Resynthesis Rate” value ([3]; 1 hr-4 hr of recovery)?
Answer: 57.69 mm/Kg · hr · dm

Question: And the “Muscle Glycogen Content” value [3, 11]?
Answer: 313 mmol/Kg · dm

Question: And the Muscle Glycogen Content ([3]; after 1 hr of recovery)?
Answer: 149±18 mmol/kg d.w

Question: What about the “increase of muscle glycogen content” value ([3]; after 1 hr of recovery, vs exhaustion) of the same molecule?
Answer: ~80%

Question: And the muscle glycogen levels ([3]; after 4 hr of recovery, co-ingestion of caffeine with CHO, P<0.001 vs placebo)?
Answer: 313±26 mmol/kg d.w.

Question: And the “muscle glycogen levels at exhaustion” value ([3]; at exhaustion, before ingestion)?
Answer: 76 ± 9 mmol/kg

Question: What about the “rates of muscle glycogen synthesis, higher than PL (carbohydrate alone)” value ([3]; from 1-4 hr of recovery) of the same molecule?
Answer: 66%

Question: And the “rates of muscle glycogen synthesis” value ([3]; from 1-4 hr of recovery, P<0.05 vs PL)?
Answer: 57.7 ± 7.6 mmol/kg/h

Question: What about the “average rate of resynthesis, higher than PL (carbohydrate alone)” value ([3]; over the 4 hours of recovery) of the same molecule?
Answer: 66%

Question: What about the “average rate of resynthesis” value ([3]; over the 4 hours of recovery, P<0.05 vs PL) of the same molecule?
Answer: 57.71 ± 7.6 mmol/kg/h

Question: And the concentration at 0 h ([4]; human, plasma, oral, 0 hr, immediately post exercise)?
Answer: 0 nM

Question: What about the concentration at 1 h ([4]; human, plasma, oral, 1 hr recovery, oral caffeine 4 mg/kg BM at 0 and 120 min with carbohydrate, read-out: Plasma caffeine concentration) of the same molecule?
Answer: 31.5 µM

Question: What about the concentration at 4 h ([4]; human, plasma, oral, 4 hr recovery, oral caffeine 4 mg/kg BM at 0 and 120 min with carbohydrate, read-out: Plasma caffeine concentration) of the same molecule?
Answer: 77.9 µM

Question: What about the concentration at 1 h ([4]; human, plasma, oral, after 1 hr, carbohydrate and caffeine, read-out: plasma caffeine levels) of the same molecule?
Answer: 30 µM

Question: What about the concentration at 4 h ([4]; human, plasma, oral, after 4 hr, carbohydrate and caffeine, read-out: plasma caffeine levels) of the same molecule?
Answer: ~80 µM

Question: What about the Plasma caffeine concentration [4, 12] of the same molecule?
Answer: 0.00 µM
